# Conditions: buffer; pH 7.4; 6.0 h; 150.0 µM
row,SMILES,solubility kinetic [µg/mL]
1,COc1ncccc1-c1cc2[nH]ccc2c(C(=O)NCc2c(C)cc(C)[nH]c2=O)n1,5.75
2,N#Cc1ccccc1-c1csc(N2CCC(C(N)=O)CC2)n1,36.9
3,CCN1CCN(CCCOc2ccc(-c3ccccc3)cc2)CC1,> 48
4,COc1cccc(-c2nc(-c3cc4cc(OC)ccc4[nH]c3=O)no2)c1,< 1
5,Cc1ccc(N(C)S(=O)(=O)c2ccc(-c3cnc(C4CC4)o3)cc2)cc1,< 1
6,O=S(=O)(Nc1nccs1)c1ccc(Nc2nc(-c3ccc(F)cc3)cs2)cc1,2.36
7,CC1(C)CCC(c2ccc(Cl)cc2)=C(CN2CCN(c3ccc(C(=O)NS(=O)(=O)c4ccc(N[C@H](CCN5CCOCC5)CSc5ccccc5)c(S(=O)(=O)C(F)(F)F)c4)cc3)CC2)C1,< 1
8,CN(C)c1ccccc1-c1csc(N2CCC(C(N)=O)CC2)n1,> 49
9,CC(=O)c1c(C)c(C(=O)Nc2cccc([S+](=O)([O-])N(C)C)c2)n(C)c1C,33.2
10,Cc1noc(C)c1CN1CCNc2cc(Nc3ccccc3)ncc2C1,> 77
11,COc1cccc(C(=O)Nc2nnc(S(=O)(=O)N3CCOCC3)s2)c1,> 57
12,NC(=O)C1CCN(c2nc(-c3ccc(Cl)cc3)cs2)CC1,1.52
13,O=S(=O)(c1ccccc1)c1nc(-c2ccc(F)cc2)oc1N1CCCCCC1,< 1
14,S=C(NCCCc1cnc[nH]1)NCCCN(Cc1ccc(Cl)c(Cl)c1)c1ccc(Br)cn1,< 1
15,NC(=O)C1CCN(c2nc(-c3ccccc3Cl)cs2)CC1,> 47
16,O=C1Nc2ccccc2/C1=C/c1cc(Cl)c(O)c(Cl)c1,> 45
17,CC(=O)NCc1ccc(-c2csc(Nc3cc(C)cc(C)c3)n2)o1,1.14
18,CN(C)c1cccc(-c2ncnc(N3CCC(C(N)=O)CC3)n2)c1,> 48
19,Cc1noc(C)c1-c1ccc2ncnc(N3CCC(C(=O)O)CC3)c2c1,> 52
20,Cc1cc(Nc2ccc(Br)c(C)c2)n2nc(C)nc2n1,30.9
21,CN(C)CCOC1=Cc2ccccc2Sc2ccc(Cl)cc21,26
22,CCC(=O)NC(c1ccco1)c1cc(Cl)c2cccnc2c1O (centres undefined),< 1
23,Nc1nc2c(s1)C(c1cc(Cl)ccc1F)CC(=O)N2 (centres undefined),3.78

row,SMILES,solubility kinetic [µg/mL]
1,CCOC(=O)c1[nH]c(C)c(CCC(=O)N2CCN(c3cc(Cl)ccc3C)CC2)c1C,2.74
2,NC(=O)C1CCN(c2nc(-c3cccc4ccccc34)cs2)CC1,38.3
3,Cc1ccc(-n2nc3c(=O)n(CCCC(=O)NCc4ccccc4F)nc(C)c3c2C)cc1,4.17
4,CCOc1ccc(CCNC(=O)c2ccccc2)cc1OCC,29.2
5,COc1ccc(CN2CCN(C(=O)c3cc4c(s3)CCC4)CC2)cc1,> 53
6,CCCC1=Nc2cc(C(=O)NC3CCCC3)ccc2Sc2ccc(C)cc21,< 1
7,O=C(Nc1nnc(-c2cccs2)o1)c1ccc(Cl)cc1,6.09
8,CC(C)N(CCCNC(=O)Nc1ccc(C(C)(C)C)cc1)C[C@H]1O[C@@H](n2ccc3c(N)ncnc32)[C@H](O)[C@@H]1O,> 80
9,Cn1nnnc1Sc1ncnc2sc(-c3ccccc3)cc12,0.088
10,NC(=O)N1CCCC(C(=O)N2CCCN(c3ccc(F)cc3)CC2)C1 (centres undefined),> 51
11,Cc1ccc(S(=O)(=O)Nc2cnccc2C(=O)Nc2nc(-c3cnn(C)c3)cs2)cc1,25.4
12,CCOc1ccc(Nc2nc(C)c(NC(=O)c3ccc(C)cc3)c(Nc3ccc(OCC)cc3)n2)cc1,< 1
13,Cc1ccccc1-c1nc(CN2CCC(C(=O)NCCCN3CCOCC3)CC2)c(C)o1,> 65
14,CCn1c(C(=O)NCCc2ccc(OC)cc2)cc2sccc21,2.08
15,COc1ccc(OC)c(-c2nnc3n2N=C(c2c(OC)cccc2OC)CS3)c1,2.63
16,O=C1CCCC2=C1C1(CCCC1)N=C(Nc1nc3ccccc3o1)N2,< 1
17,O=C(Nc1ncnc2sc3c(c12)CCC3)c1ccco1,11.5
18,CCOc1ccccc1N(CC(=O)N1CCOCC1)S(=O)(=O)c1ccc(SC)cc1,> 67
19,COc1ccccc1Nc1ccnc(N2CCN(C(=O)c3ccccc3Cl)CC2)n1,1.59
20,Cc1cccc(CN2CCN(c3ccccn3)CC2)c1,30.9
21,Cc1nc(-c2ccccc2)cc([C@H]2CN3CC[C@H]2C[C@@H]3CNC2CCOCC2)n1,> 58
22,CC(C)(O)Cn1c(NC(=O)c2ccc(-c3cn[nH]c3)s2)nc2cc(CN3CCOCC3)ccc21,47
23,COC(C)(C)CCn1nc(Nc2c(C)cccc2C)c2cnc(Nc3ccc(OCCN4CCCC4)c(F)c3)nc21,28.3

row,SMILES,solubility kinetic [µg/mL]
1,Cc1cc(C)nc(N2CCCC(C(=O)NCCc3ccc(F)cc3)C2)n1 (centres undefined),2.77
2,CC(C)n1cc(-c2ccc3c(c2)N(C)CC3)c2c(NS(=O)(=O)c3ccn(C)n3)ccnc21,36.7
3,COc1cc(OC)c2c(=O)[nH]c(-c3cc(C)c(OCCO)c(C)c3)nc2c1,> 55
4,Cc1cc(Oc2ccc(N)cn2)ccc1Cl,> 35
5,Cc1nn(CC(=O)NCCCN2CCC(N3CCCCC3)CC2)c(=O)c2cc(-c3ccccc3)nn12,> 73
6,COc1cccc(C(=O)Nc2nc(-c3nnn(-c4cccc(Cl)c4C)c3C)ns2)c1,< 1
7,CCN1CCc2c(sc(NC(=O)Nc3ccc(Cl)c(Cl)c3)c2C(N)=O)C1,< 1
8,O=c1ncn2nc(Sc3ccc(F)cc3F)ccc2c1-c1c(Cl)cccc1Cl,> 100
9,CCOc1ccc(CCNC(=O)c2cc3cnccc3n2Cc2cccc(C)c2)cc1OCC,> 68
10,CC(=O)Nc1nc(-c2ccc3c(c2)CCN3C(=O)c2ccccc2C)c(C)s1,< 1
11,O=C(c1ccc2c(c1)ncn2-c1ccc(Cl)cc1)N1CCCCC1,> 50
12,Cc1cc(C)nc(NC(=S)N2CCN(c3ccc(Cl)cc3F)CC2)c1,3.36
13,Cc1cccc(N2CCN(C(=O)Cn3ncc4c3-c3ccccc3OC4)CC2)c1C,3.85
14,O=C1Nc2ccccc2/C1=C/c1ccc[nH]1,1.91
15,CN(C)c1cccc(-c2cc(N3CCC(C(N)=O)CC3)ncn2)c1,> 48
16,Cc1cccc(-c2csc(N3CCC(C(N)=O)CC3)n2)c1,> 45
17,Cc1ccc(C(=O)N2CCc3cc(-c4nc(NC(=O)Cc5ccc6c(c5)OCO6)sc4C)ccc32)cc1,< 1
18,Cc1ccc(Nc2nc(C)c(NC(=O)c3ccc(C)cc3)c(Nc3ccc(C)cc3)n2)cc1,< 1
19,C[S+](=O)([O-])N1CCC(Cn2ccc3c(N4CCOCC4)nc(-c4cccc5[nH]ccc45)cc32)CC1,< 1
20,CSc1ccc(-c2cnc(N3CCC(C(N)=O)CC3)s2)cc1,< 1
21,Cc1ccnc(N=C(N)N2CCN(c3cccc(C(F)(F)F)c3)CC2)c1,24.4
22,O=C(c1ccc2c(c1)ncn2-c1ccccc1)N1CCCCC1,> 45

# The next lines start with the values.
row,solubility kinetic [µg/mL],SMILES
1,2.59,COc1cccc(CNc2ccc(S(=O)(=O)Nc3nc4ccccc4[nH]3)cc2)c1O
2,< 1,Cc1ccc(OCCn2c(CCNC(=O)c3ccc(Cl)cc3)nc3ccccc32)cc1
3,< 1,COc1ccc(Nc2nnc(-c3ccc(C)c(S(=O)(=O)NCc4nc5ccccc5[nH]4)c3)c3ccccc23)cc1
4,1.09,COc1cc(NC(=O)c2cc(-c3ccccc3O)no2)cc(OC)c1OC
5,1.28,CN(C(=O)CNC(=O)c1ccccc1OCC(=O)Nc1ccc(I)cc1)c1ccccc1
6,< 1,CCCc1ccc(-c2csc(NC(=O)c3ccncc3NS(=O)(=O)c3ccc(C)cc3)n2)cc1
7,5.42,C=Cc1ccc(Cn2c(C(=O)O)c(CNCc3ccccc3)c3ccc(OC)cc32)cc1
8,< 1,CN(C)CCOc1ccc(/C(=C(/CCCl)c2ccccc2)c2ccccc2)cc1
9,1.79,Oc1ccc(CN2CC(CNc3ccccc3)C3(C2)CN(c2ccccc2)C3)cc1 (centres undefined)
10,42.6,COc1ccccc1S(=O)(=O)Nc1cnccc1C(=O)Nc1nc(-c2ccccc2)cs1
11,< 1,c1ccc2c(Nc3ccc4nc[nH]c4c3)nc(-c3ccncc3)nc2c1
12,< 1,CC(C)(C)c1ccc(-c2nc(SCCCOc3ccccc3)n3[nH]c(=O)cc3n2)cc1
13,> 60,O=[N+]([O-])c1ccc(CNc2ccc([S+](=O)([O-])Nc3nccs3)cc2)c(O)c1
14,< 1,Cc1ccc(S(=O)(=O)Nc2ccc(C(=O)Nc3nc(-c4ccccc4)cs3)cc2Cl)cc1
15,> 67,Cc1cc(S(=O)(=O)Nc2cnccc2C(=O)Nc2nc(-c3ccccc3)cs2)c(C)o1
16,< 1,CCOc1ccc(C2C(C(=O)Nc3ccccc3OC)=C(C)Nc3c(C(=O)Nc4cccc(C)c4)cnn32)cc1 (centres undefined)

row,solubility kinetic [µg/mL],SMILES
1,> 67,Cc1ccc(S(=O)(=O)Nc2cnccc2C(=O)Nc2nc(-c3cccnc3)cs2)cc1
2,< 1,Cc1ccc(S(=O)(=O)NCC(=O)Nc2nc(-c3ccccc3)cs2)cc1
3,< 1,COc1cc(Nc2nc(-c3ccncc3)nc3ccccc23)ccc1Cl
4,< 1,N#C/C(=C\c1ccc(Sc2ccc(Cl)cc2)o1)c1nc2ccccc2[nH]1
5,< 1,Cc1ccc(NC(=O)C(Cc2ccccc2)NS(=O)(=O)c2cccs2)cc1Cl (centres undefined)
6,< 1,Cc1ccc(-c2cc(C(=O)Nc3ccc(S(N)(=O)=O)cc3)c3ccccc3n2)cc1C
7,4.37,CN1C(=O)c2ccccc2[S@](=O)c2ccc(C(=O)NCc3ccc(Cl)cc3)cc21
8,< 1,O=C(Nc1cccc(Cc2ccccc2)c1)c1ccc(-c2cccc([N+](=O)[O-])c2)o1
9,< 1,CNc1nc(-c2cccc3ccccc23)ccc1C#N
10,> 67,Cc1ccc(S(=O)(=O)Nc2cnccc2C(=O)Nc2ccc(N3CCOCC3)cc2)cc1
11,< 1,CN(C(=O)CSc1nc2ccc(NC(=O)c3ccc(F)cc3)cc2s1)c1ccccc1
12,< 1,COc1ccc(NC(=O)C2=C(C)NC(Nc3nc4ccccc4o3)=NC2c2ccccc2Br)cc1 (centres undefined)
13,< 1,O=C(Nc1nc(-c2ccccc2)cs1)c1ccncc1NS(=O)(=O)c1cccc(Cl)c1
14,< 1,Cc1ccc(-c2cc(C(=O)NCc3cnn(C)c3)c3cc(Br)ccc3n2)cc1
15,< 1,CCN(CC)C(=O)c1sc2c(c1C)c(=O)n(Cc1ccccc1)c(=O)n2CC(=O)Nc1ccc(OC)cc1
